From BindingDB's records for doi:10.1016/j.bmcl.2006.10.059 (Merck Research Laboratories, 2007)

Experiment: Inhibition of MCP1-stimulated chemotaxis in monocytes transfected with human CCR2

Compound | IC50 [nM]
CC(=O)Nc1nc(C(CCN2CCC3(C=Cc4ccccc43)[C@@H](C)C2)C(=O)NCc2cc(C(F)(F)F)cc(C(F)(F)F)c2)cs1 (stereo partly drawn) [N-{[3,5-bis(trifluoromethyl)phenyl]methyl}-2-(2-acetamido-1,3-thiazol-4-yl)-4-[(5'R)-5'-methylspiro[indene-1,4'-piperidine]-1'-yl]butanamide] | 0.6
CC(=O)Nc1nc([C@H](CCN2CCC(c3ccccc3)CC2)C(=O)NCc2cc(C(F)(F)F)cc(C(F)(F)F)c2)cs1 [(S)-N-(3,5-bis(trifluoromethyl)benzyl)-2-(2-acetamidothiazol-4-yl)-4-(4-phenylpiperidin-1-yl)butanamide] | 0.7
CNC(=O)Nc1nc([C@H](CCN2CCC(c3ccccc3)CC2)C(=O)NCc2cc(C(F)(F)F)cc(C(F)(F)F)c2)cs1 [(S)-1-(4-(1-(3,5-bis(trifluoromethyl)benzylamino)-1-oxo-4-(4-phenylpiperidin-1-yl)butan-2-yl)thiazol-2-yl)-3-methylurea] | 1.8
CNC(=O)Nc1nc([C@@H](CCN2CCC(c3ccccc3)CC2)C(=O)NCc2cc(C(F)(F)F)cc(C(F)(F)F)c2)cs1 [(R)-1-(4-(1-(3,5-bis(trifluoromethyl)benzylamino)-1-oxo-4-(4-phenylpiperidin-1-yl)butan-2-yl)thiazol-2-yl)-3-methylurea] | 87

Other lines, results leading:

IC50 [nM] | Compound
5.3 | CC(=O)Nc1nc([C@H](CCN2CCC3(C=Cc4ccccc43)CC2)C(=O)NCc2cc(C(F)(F)F)cc(C(F)(F)F)c2)cs1 [(2S)-N-{[3,5-bis(trifluoromethyl)phenyl]methyl}-2-(2-acetamido-1,3-thiazol-4-yl)-4-{spiro[indene-1,4'-piperidine]-1'-yl}butanamide]
0.7 | CC(=O)Nc1nc(C(CCN2CCC3(C=Cc4ccccc43)CC2)C(=O)NCc2cc(C(F)(F)F)cc(C(F)(F)F)c2)cs1 (configuration not stated) [N-{[3,5-bis(trifluoromethyl)phenyl]methyl}-2-(2-acetamido-1,3-thiazol-4-yl)-4-{spiro[indene-1,4'-piperidine]-1'-yl}butanamide]
27 | CC(=O)Nc1nc([C@@H](CCN2CCC3(C=Cc4ccccc43)CC2)C(=O)NCc2cc(C(F)(F)F)cc(C(F)(F)F)c2)cs1 [(2R)-N-{[3,5-bis(trifluoromethyl)phenyl]methyl}-2-(2-acetamido-1,3-thiazol-4-yl)-4-{spiro[indene-1,4'-piperidine]-1'-yl}butanamide]
